The supplement of paper PMC10307832

Experiments:
Experiment in all cases: relative viability (nuclei count vs DMSO), 5 days (fraction); higher = more cells survive
GW-2580 + Lapatinib = compound: COC1=CC=C(C=C1)COC2=C(C=C(C=C2)CC3=CN=C(N=C3N)N)OC [GW-2580] + CS(=O)(=O)CCNCc1ccc(-c2ccc3ncnc(Nc4ccc(OCc5cccc(F)c5)c(Cl)c4)c3c2)o1 [Lapatinib] (partner 2 µM)
Procedure, shortened: (§1)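 One day after seeding in 1536-well plates, lung cancer cell lines were dosed by pin tool. Dosing was either single-drug or a fixed anchor-drug dose plus five library-drug doses (not always all listed) in √10 steps. After 5 days, nuclei were stained in one fix-and-stain step and counted on 4× images, and relative viability is the nuclei count of treated wells over that of vehicle wells, given as the median of duplicate plates.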

Fedratinib + Navitoclax = compound: Cc1cnc(Nc2ccc(OCCN3CCCC3)cc2)nc1Nc1cccc(S(=O)(=O)NC(C)(C)C)c1 [Fedratinib] + CC1(C)CCC(c2ccc(Cl)cc2)=C(CN2CCN(c3ccc(C(=O)NS(=O)(=O)c4ccc(N[C@H](CCN5CCOCC5)CSc5ccccc5)c(S(=O)(=O)C(F)(F)F)c4)cc3)CC2)C1 [Navitoclax] (partner 0.5 µM)
Procedure, shortened: as §1

Fedratinib + Luminespib = compound: Cc1cnc(Nc2ccc(OCCN3CCCC3)cc2)nc1Nc1cccc(S(=O)(=O)NC(C)(C)C)c1 [Fedratinib] + CCNC(=O)c1noc(-c2cc(C(C)C)c(O)cc2O)c1-c1ccc(CN2CCOCC2)cc1 [Luminespib] (partner 0.01 µM)
Procedure, shortened: as §1

Fedratinib + OSI-027 = compound: Cc1cnc(Nc2ccc(OCCN3CCCC3)cc2)nc1Nc1cccc(S(=O)(=O)NC(C)(C)C)c1 [Fedratinib] + COc1cccc2cc(-c3nc([C@H]4CC[C@H](C(=O)O)CC4)n4ncnc(N)c34)[nH]c12 [OSI-027] (partner 0.5 µM)
Procedure, shortened: as §1

Fedratinib + Dasatinib = compound: Cc1cnc(Nc2ccc(OCCN3CCCC3)cc2)nc1Nc1cccc(S(=O)(=O)NC(C)(C)C)c1 [Fedratinib] + Cc1nc(Nc2ncc(C(=O)Nc3c(C)cccc3Cl)s2)cc(N2CCN(CCO)CC2)n1 [Dasatinib] (partner 0.075 µM)
Procedure, shortened: as §1

Fedratinib + AZD7762 = compound: Cc1cnc(Nc2ccc(OCCN3CCCC3)cc2)nc1Nc1cccc(S(=O)(=O)NC(C)(C)C)c1 [Fedratinib] + NC(=O)Nc1cc(-c2cccc(F)c2)sc1C(=O)N[C@H]1CCCNC1 [AZD7762] (partner 0.2 µM)
Procedure, shortened: as §1

| Cell Line | relative viability (GW-2580 + Lapatinib; first compound 0.08 µM) | relative viability (GW-2580 + Lapatinib; first compound 0.8 µM) | relative viability (GW-2580 + Lapatinib; first compound 2.53 µM) | relative viability (GW-2580 + Lapatinib; first compound 8 µM) | relative viability (Fedratinib + Navitoclax; first compound 0.1 µM) | relative viability (Fedratinib + Navitoclax; first compound 0.3162 µM) | relative viability (Fedratinib + Navitoclax; first compound 1 µM) | relative viability (Fedratinib + Luminespib; first compound 0.1 µM) | relative viability (Fedratinib + Luminespib; first compound 0.3162 µM) | relative viability (Fedratinib + Luminespib; first compound 1 µM) | relative viability (Fedratinib + OSI-027; first compound 0.1 µM) | relative viability (Fedratinib + OSI-027; first compound 0.3162 µM) | relative viability (Fedratinib + OSI-027; first compound 1 µM) | relative viability (Fedratinib + Dasatinib; first compound 0.1 µM) | relative viability (Fedratinib + Dasatinib; first compound 0.3162 µM) | relative viability (Fedratinib + Dasatinib; first compound 1 µM) | relative viability (Fedratinib + AZD7762; first compound 0.1 µM) | relative viability (Fedratinib + AZD7762; first compound 0.3162 µM) | relative viability (Fedratinib + AZD7762; first compound 1 µM) |
| --- | --- | --- | --- | --- | --- | --- | --- | --- | --- | --- | --- | --- | --- | --- | --- | --- | --- | --- | --- |
| NCI-H2126 | 0.767 | 0.835 | 0.679 | 0.833 | 0.852 | 0.831 | 0.86 | 0.929 | 0.962 | 0.834 | 0.757 | 0.736 | 0.704 | 0.577 | 0.655 | 0.426 | 1.06 | 1.01 | 1.01 |
| NCI-H2170 | 0.26 | 0.258 | 0.261 | 0.274 | 0.626 | 0.653 | 0.429 | 0.651 | 0.677 | 0.648 | 0.688 | 0.723 | 0.596 | 0.566 | 0.416 | 0.339 | 0.77 | 0.821 | 0.644 |
| NCI-H2347 | 1.02 | 1.03 | 0.805 | 0.936 | 0.675 | 0.823 | 0.733 | 0.33 | 0.401 | 0.59 | 0.292 | 0.428 | 0.497 | 0.311 | 0.275 | 0.435 | 0.757 | 0.645 | 0.857 |
| NCI-H2405 | 1.05 | 1.16 | 1.02 | 0.912 | 0.583 | 0.895 | 0.506 | 0.57 | 0.701 | 0.562 | 0.601 | 0.618 | 0.61 | 0.191 | 0.244 | 0.159 | 0.7 | 0.764 | 0.528 |
| NCI-H3122 | 1.01 | 1.02 | 0.999 | 1.04 | 1.01 | 0.964 | 1.01 | 0.0769 | 0.0986 | 0.088 | 0.911 | 0.918 | 0.854 | 0.747 | 0.738 | 0.816 | 1.07 | 1.02 | 0.912 |
| PC-3 [JPC-3] | 0.458 | 0.462 | 0.358 | 0.446 | 0.856 | 0.804 | 0.782 | 0.716 | 0.793 | 0.642 | 0.776 | 0.801 | 0.764 | 1.11 | 0.905 | 0.966 | 0.775 | 0.976 | 0.668 |
| PC-14 | 0.379 | 0.35 | 0.307 | 0.268 | 1.16 | 1.08 | 0.989 | – | 0.172 | 0.14 | 0.746 | 0.88 | 0.633 | 0.167 | 0.272 | 0.143 | 0.275 | 0.349 | 0.215 |
| RERF-LC-KJ | 0.895 | 0.909 | 0.736 | 0.884 | 0.913 | 0.948 | 1.07 | 1.13 | 1.24 | 1.17 | 0.533 | 0.602 | 0.48 | 0.683 | 0.768 | 0.655 | 0.895 | 0.918 | 0.953 |
